Where two headings read alike, the source gives them in different places.
Assays:
Rad51 [1] = target: T1, Rad51 (Homo sapiens, UniProt Q06609); experiment: DNA invasion by D-loop assay (strand exchange); type: biochemical
T1 sequence (Q06609 1-339): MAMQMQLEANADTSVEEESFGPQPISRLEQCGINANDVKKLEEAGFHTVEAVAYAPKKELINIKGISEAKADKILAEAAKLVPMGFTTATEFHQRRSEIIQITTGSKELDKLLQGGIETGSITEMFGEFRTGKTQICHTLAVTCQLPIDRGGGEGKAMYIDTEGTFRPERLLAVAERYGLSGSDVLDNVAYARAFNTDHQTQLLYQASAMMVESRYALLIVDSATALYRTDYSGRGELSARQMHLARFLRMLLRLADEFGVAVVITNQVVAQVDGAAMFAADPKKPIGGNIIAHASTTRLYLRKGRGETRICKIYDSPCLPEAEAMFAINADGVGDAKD
Protocol: Labeled 100-ssDNA** (1 μM) was incubated with 0.5 μM Rad51 in presence or absence of the indicated amounts of the corresponding molecule in 10 μL of standard reaction buffer containing 20 mM Tris-HCl (pH 8), 1 mM ATP, 1 mM DTT, 1 mM CaCl2) at 37° C. for 20 min. The reaction was initiated by adding supercoiled pPB4.3 DNA (200 μM in bp). After incubation of 30 min at 37° C., the reactions were stopped and deproteinized by a stop solution (10 mM Tris-HCl pH 8, 10 mM MgCl2, 1% SDS, and 1 mg/mL proteinase K. The reaction mixtures were further incubated for 15 min at 37° C. After adding 5-fold loading dye (0.05% bromophenol blue, 8% glycerol, 1 mM EDTA), the reaction products were separated by electrophoresis on 1% agarose gel. The electrophoresis was carried out in 0.5×TAE buffer (20 mM Tris, 10 mM acetic acid and 1 mM EDTA) at 100 V for 2 h. The labeled products (100-ssDNA** and D-loop) were visualized and quantified by the detection of the IRD-700 dye with the 700 nm infrared fluorescent detection channel of an Odyssey Infrared Imager (LI-COR) (Normand, A. et al., Biochemical Pharmacology, October 2014, Vol. 91, No. 3, pp. 293-300).
The “D-loop” in vitro test allows the quantification of the formation of the strand exchange structure (D-loop) and thus the determination of the inhibitory power of a molecule during the strand exchange step of the recombinase mechanism. IC50 measuring the RAD51 protein inhibition in presence of compounds A-1 to A-5, […] and DIDS are then calculated.

HsRad51 = target: T2, HsRad51 (Homo sapiens, UniProt Q06609); experiment: RAD51 oligomerization by SDS-PAGE gel after crosslink; type: biochemical; conditions: 2.5 μM HsRad51, disuccinimidyl suberate crosslink, SDS-PAGE/Western blot; FIG. 1
T2 sequence (Q06609 1-339): T1 sequence (Q06609 1-339)
Protocol: The reaction was performed at room temperature. 2.5 μm HsRad51 was incubated with the indicated concentrations of tested compounds for 10 min in a buffer containing 20 mm sodium phosphate, 50 mm NaCl, 1 mm MgCl 2, and 1 mm ATP. The cross-linking reactions were initiated by the addition of disuccinimidyl suberate (50 μm) and allowed to proceed for 30 min. Reactions were quenched by the addition of Tris-HCl (pH 7.5, final concentration: 50 mm) followed by subsequent incubations for 15 min. The products were then separated by 12% SDS polyacrylamide gel electrophoresis and detected by Western blot with mouse monoclonal anti-Rad51 antibody (NeoMarkers) and anti-mouse Alexa-Fluor 700-conjugated secondary antibody (Molecular Probes, Eugene, OR). The cross-linked dimer was quantified by an Odyssey Infrared Imaging System scanner (Li-Cor Biosciences) (Martinez, S. F. et al., “Targeting human Rad51 by specific DNA aptamers induces inhibition of homologous recombination”, Biochimie, December 2010, Vol. 92, No. 12, pp. 1832-1838).
The SDS-PAGE electrophoresis after crosslink maintains and immobilizes the RAD51 protein complexes and thus allows visualization of the degree of oligomerization (polymer formation) of the RAD51 protein. The effect of RAD51 protein inhibitors B-1, B-2, B-3, DIDS and X-4 on this key step of RAD51 protein recombinase activity has thus been evaluated. The results are presented on FIG. 1.

Rad51 [2] = target: T1, Rad51; experiment: RAD51 nucleofilament formation by Bio-Layer Interferometry (BLItz), binding of Rad51 to ssDNA; conditions: for activity on nucleofilament formation compared with reference molecule BPQ / formation of RAD51 protein nucleofilament (relative binding of RAD51 protein with single-stranded DNA): FIG. 2; for formation of RAD51 protein nucleofilament (relative binding of RAD51 protein with single-stranded DNA): increasing doses of inhibitors; for activity on nucleofilament formation compared with reference molecule DIDS: low dose (5 μM)
Protocol: The binding of Rad51 to ssDNA was monitored and quantified by Bio-Layer Interferometry technology using the BLItz platform (FortéBio Inc.). The procedure includes four steps: (1) the baseline in buffer A containing 1×PBS, 10 mM MgCl2 and 0.0075% Tween20 was recorded for 20 s; (2) loading and binding of Rad51 were measured for 40 s using 1.5 μM Rad51 and 1 mM ATP in buffer A; (3) the dissociation of Rad51 from ssDNA was recorded for 20 s in buffer A; (4) the ssDNA biosensor was regenerated using baths of 50 mM NaOH. Except for the step 2, which used 4 μL drop of the protein sample, the steps 1, 3 and 4 used 250 μL solutions in 0.5 mL tube. The measurement parameters were as follows: room temperature measurement and stirring speed of 2200 rpm. To investigate the effect of CSB and analogs to the ssDNA binding of Rad51, the molecule was included in the protein sample of the step 2 at the indicated concentrations and incubated for 5 min before loading on the biosensor. (Normand, A. et al., “Identification and characterization of human Rad51 inhibitors by screening of an existing drug library.”, Biochemical Pharmacology, October 2014, Vol. 91, No. 3, pp. 293-300).
A test based on interferometry (Blitz®, Fortebio) allows the measure of the association kinetics of RAD51 protein with a single-stranded DNA immobilized on a biosensor support in the presence or absence of an inhibitor. The effect of compounds B-1, B-2, B-3, BPQ and X-4 on RAD51 nucleofilament formation has been evaluated in presence of increasing doses of inhibitors. The results are presented on FIG. 2.

[3] = system: recombinant fibroblast line RG37; experiment: Intracellular homologous recombination (HR), GFP reconstitution after I-SceI cleavage, flow cytometry; type: cell-based; conditions: RG37 cells, 72 h after pCMV-HA-I-SceI transfection; FIG. 3
Protocol: After transfection with the pCMV-HA-I-SceI plasmid and incubation for 72 h, the cells were collected in PBS and 50 mM EDTA, pelleted and fixed with 2% paraformaledhyde for 20 min. The percentage of GFP-expressing cells was scored by FACS analysis using Cytoflex (Beckman Coulter). At least 3 independent experiments were performed, and HA-I-SceI expression was verified each time by Western blot with rabbit anti-HA antibody (Abcam).
The recombinant fibroblast line RG37 is used to confirm in vitro results (Examples 2-5) in the cellular context. This cellar line comprises two non-functional GFP cassettes, one of which has a unique cleavage site inducible by transfection of a restriction enzyme. After cleavage, which is equivalent to a double-strand break (DSB) of the DNA, the homologous recombination (HR) leads to the reconstitution of a complete GFP cassette thus making the cell fluorescent. The rate of intracellular HR is then determined by measurement in flow cytometry so as to measure the level of HR in cells after treatment with compounds C-3, B-2 and X-2.

DU-145 cell line = experiment: Clonogenicity test, sensitizing effect with an antineoplastic drug; type: cell-based; conditions: Homo sapiens; DU-145, camptothecin alone; read-out: IC50 (clonogenic survival, camptothecin)
Protocol: Clonogenicity tests are carried out against several model cell lines derived from cancer including prostate cancer (DU-145). Cells are exposed to an anti-cancer agent targeting DNA (cisplatin or camptothecin). Damaged cells are counted and seeded in the presence or in the absence of B-2 in triplicate culture plates. After about two weeks of incubation at 37° C. the number of clones formed is counted. Each cell capable of repairing its lesions will then form a clone. After counting, the percentage of survival will be calculated relative to the control condition for which it is considered that there is 100% survival.
The main interest of RAD51 protein inhibitors is the sensitization of chemo-resistant or radio-resistant cancerous cell lines. Clonogenicity evaluation was carried out on the DU-145 cell line treated with cisplatin treatment in the presence or in the absence of disulfonate stilbene B-2 (RAD51 protein inhibitor).
DU-145 cell line was treated with camptothecin in the presence or in the absence of disulfonate stilbene B-2 (RAD51 protein inhibitor) and the clonogenic cell survival was determined.

[4] = 0.5 μM Rad51, 1 μM 100-ssDNA, 37° C., read-out: IC50 (RAD51 protein inhibition, D-loop formation)

For `O=C(Nc1ccc(/C=C/c2ccc(NC(=O)c3ccccc3)cc2S(=O)(=O)O)c(S(=O)(=O)O)c1)c1ccccc1` [A-3, Sodium (E)-6,6′-(ethene-1,2-diyl)bis(3-benzamidobenzenesulfonate)], the IC50 (Rad51 [1]; [4]) was over 10 µM.
`COc1ccc(C(=O)Nc2ccc(/C=C/c3ccc(NC(=O)c4ccc(OC)cc4)cc3S(=O)(=O)O)c(S(=O)(=O)O)c2)cc1` [A-4, Sodium (E)-6,6′-(ethene-1,2-diyl)bis(3-(4-methoxybenzamido)benzenesulfonate)] was tested, and the IC50 (Rad51 [1]; [4]) was 6 µM.
For `[N-]=[N+]=Nc1ccc(/C=C/c2ccc(N=[N+]=[N-])cc2S(=O)(=O)[O-])c(S(=O)(=O)[O-])c1.[Na+].[Na+]` [B-1, Sodium (E)-6,6′-(ethene-1,2-diyl)bis(3-azidobenzenesulfonate)], the IC50 (Rad51 [1]; [4]) was 21 µM, the “oligomerization state of RAD51 protein” value (HsRad51) was “significant reduction” and the “activity on nucleofilament formation compared with reference molecule BPQ” value (Rad51 [2]) was “comparable to or even better”. The “formation of RAD51 protein nucleofilament (relative binding of RAD51 protein with single-stranded DNA)” value (Rad51 [2]) was “inhibit” and the “activity on nucleofilament formation compared with reference molecule DIDS” value (Rad51 [2]) was “comparable”.
In the case of `O=S(=O)([O-])c1cc(I)ccc1/C=C/c1ccc(I)cc1S(=O)(=O)[O-].[K+].[K+]` [B-3, Potassium (E)-6,6′-(ethene-1,2-diyl)bis(3-iodobenzenesulfonate)], the IC50 (Rad51 [1]; [4]) is reported as 34 µM, the “oligomerization state of RAD51 protein” value (HsRad51) is reported as “significant reduction” and the “activity on nucleofilament formation compared with reference molecule BPQ” value (Rad51 [2]) is reported as “comparable to or even better”. For the same compound, the “formation of RAD51 protein nucleofilament (relative binding of RAD51 protein with single-stranded DNA)” value (Rad51 [2]) was “inhibit” and the “activity on nucleofilament formation compared with reference molecule DIDS” value (Rad51 [2]) was “comparable”.
`O=C(Nc1ccc(/C=C/c2ccc(NC(=O)Oc3ccccc3)cc2S(=O)(=O)[O-])c(S(=O)(=O)[O-])c1)Oc1ccccc1.[Na+].[Na+]` [C-3, Sodium (E)-6,6′-(ethene-1,2-diyl)bis(3-((phenoxycarbonyl)amino)benzenesulfonate)] was tested, and the “intracellular HR inhibition” value [3] was “significant inhibitory effect” and the IC50 (Rad51 [1]) was 2 µM.
Compound `O=S(=O)(O)c1cc(NS(=O)(=O)c2ccccc2)ccc1/C=C/c1ccc(NS(=O)(=O)c2ccccc2)cc1S(=O)(=O)O` [S-1, Sodium (E)-6,6′-(ethene-1,2-diyl)bis(3-(phenylsulfonamido)benzenesulfonate)] has an IC50 (Rad51 [1]; [4]) of 41 µM.
`Cc1ccc(S(=O)(=O)Nc2ccc(/C=C/c3ccc(NS(=O)(=O)c4ccc(C)cc4)cc3S(=O)(=O)O)c(S(=O)(=O)O)c2)cc1` [S-2, Sodium (E)-6,6′-(ethene-1,2-diyl)bis(3-((4-methylphenyl)sulfonamido)benzenesulfonate)] showed an IC50 (Rad51 [1]; [4]) of 29 µM.
For `O=C(Nc1ccc(/C=C/c2ccc(NC(=O)Oc3ccccc3)cc2)cc1)Oc1ccccc1` [X-2, Diphenyl (ethene-1,2-diylbis(4,1-phenylene))(E)-dicarbamate, reference compound], the “intracellular HR inhibition” value [3] was “does not lead to any inhibition”.
With `[N-]=[N+]=Nc1ccc(/C=C/c2ccc(N=[N+]=[N-])cc2)cc1` [X-4, (E)-1,2-bis(4-azidophenyl)ethene, reference compound] the “oligomerization state of RAD51 protein” value (HsRad51) was “no effect” and the “formation of RAD51 protein nucleofilament (relative binding of RAD51 protein with single-stranded DNA)” value (Rad51 [2]) was “no inhibitory effect whatsoever”.
`CC[C@@]1(O)C(=O)OCc2c1cc1n(c2=O)Cc2cc3ccccc3nc2-1` [camptothecin, reference compound] showed an IC50 (DU-145 cell line) of 0.098 µM.

Source: patent US12233041B2, “Disulfonate stilbenes for use in the treatment of proliferative diseases” (UNIVERSITÉ DE NANTES, priority 2018, dated 2025)
